Data published in patent publication US12077503B2, “Substituted cyclic amides and their use as herbicides” (FMC CORPORATION, priority 2015, dated 2024).

Experiments:
Format in all cases: in vivo
[1] = test system: barnyardgrass (Echinochloa crus-galli); assay: Test G Post-Emergence Protocol; conditions: Echinochloa crus-galli, post-emergence, 312 h
Procedure, shortened: (§1)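 Values are percent visual injury at 13 days after treatment (0 none, 100 total). Treatment was a post-emergence spray at 15.625, 62.5 or 250 g/ha on 8-day-old pot plants kept at 24/16 °C.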

[2] = test system: ivy-leaved morning glory (Ipomoea hederacea); assay: Test G Post-Emergence Protocol; conditions: Ipomoea, post-emergence, 312 h
Procedure, shortened: as §1

[3] = test system: giant foxtail (Setaria faberi); assay: Test G Post-Emergence Protocol; conditions: Setaria faberi, post-emergence, 312 h
Procedure, shortened: as §1

[4] = test system: velvetleaf (Abutilon theophrasti); assay: Test G Post-Emergence Protocol; conditions: Abutilon theophrasti, post-emergence, 312 h
Procedure, shortened: as §1

[5] = test system: corn (Zea mays); assay: Test G Post-Emergence Protocol; conditions: Zea mays, post-emergence, 312 h
Procedure, shortened: as §1

[6] = test system: redroot pigweed (Amaranthus retroflexus); assay: Test G Post-Emergence Protocol; conditions: Amaranthus retroflexus, post-emergence, 312 h
Procedure, shortened: as §1

[7] = test system: barnyardgrass (Echinochloa crus-galli); assay: Test G Pre-Emergence Protocol; conditions: Echinochloa crus-galli, pre-emergence, 312 h, evaluated after 13 days
Procedure, shortened: (§2)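 Spraying took place one day after sowing, at 15.625, 62.5 or 250 g/ha, using an acetone/water (50:50) spray solution containing 0.5% Tween 20. Plants were kept under glasshouse conditions (24/16 °C, 14 h light, 65% humidity, watered twice daily), and injury was rated 0–100 at day 13.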

[8] = test system: ivy-leaved morning glory (Ipomoea hederacea); assay: Test G Pre-Emergence Protocol; conditions: Ipomoea, pre-emergence, 312 h, evaluated after 13 days
Procedure, shortened: as §2

[9] = test system: giant foxtail (Setaria faberi); assay: Test G Pre-Emergence Protocol; conditions: Setaria faberi, pre-emergence, 312 h, evaluated after 13 days
Procedure, shortened: as §2

[10] = test system: velvetleaf (Abutilon theophrasti); assay: Test G Pre-Emergence Protocol; conditions: Abutilon theophrasti, pre-emergence, 312 h, evaluated after 13 days
Procedure, shortened: as §2

[11] = test system: corn (Zea mays); assay: Test G Pre-Emergence Protocol; conditions: Zea mays, pre-emergence, 312 h, evaluated after 13 days
Procedure, shortened: as §2

[12] = test system: redroot pigweed (Amaranthus retroflexus); assay: Test G Pre-Emergence Protocol; conditions: Amaranthus retroflexus, pre-emergence, 312 h, evaluated after 13 days
Procedure, shortened: as §2

Q: For `C=CCc1c(Cl)cccc1NC(=O)[C@H]1C(=O)N(C)C[C@H]1c1ccc(C(F)(F)F)cc1` (racemic) [Compound 1439], which pest or weed control at 15.625 g/ha ([1]; 15.625 g ai/ha, evaluated after 13 days (100=total damage to plant; 0=no damage to plant), read-out: Barnyardgrass damage rating) is on record?
A: The pest or weed control at 15.625 g/ha was 0%.

Q: And the pest or weed control at 62.5 g/ha ([1]; 62.5 g ai/ha, evaluated after 13 days, read-out: Barnyardgrass damage rating (100=total damage to plant; 0=no damage to plant))?
A: Its pest or weed control at 62.5 g/ha is 0%.

Q: What about the pest or weed control at 250 g/ha ([1]; 250 g ai/ha, evaluated after 13 days, read-out: damage to plant, Barnyardgrass (100=total damage to plant; 0=no damage to plant)) of the same molecule?
A: Its pest or weed control at 250 g/ha is 10%.

Q: What about the pest or weed control at 15.625 g/ha ([2]; 15.625 g ai/ha, evaluated after 13 days (100=total damage to plant; 0=no damage to plant), read-out: Morningglory, Ivy-leaved damage rating) of the same molecule?
A: Its pest or weed control at 15.625 g/ha is 0%.

Q: What about the pest or weed control at 62.5 g/ha ([2]; 62.5 g ai/ha, evaluated after 13 days, read-out: Morningglory, Ivy-leaved damage rating (100=total damage to plant; 0=no damage to plant)) of the same molecule?
A: The pest or weed control at 62.5 g/ha was 0%.

Q: What about the pest or weed control at 250 g/ha ([2]; 250 g ai/ha, evaluated after 13 days, read-out: damage to plant, Morningglory, Ivy-leaved (100=total damage to plant; 0=no damage to plant)) of the same molecule?
A: Its pest or weed control at 250 g/ha is 0%.

Q: What about the pest or weed control at 15.625 g/ha ([3]; 15.625 g ai/ha, evaluated after 13 days (100=total damage to plant; 0=no damage to plant), read-out: Foxtail, Giant damage rating) of the same molecule?
A: Its pest or weed control at 15.625 g/ha is 0%.

Q: And the pest or weed control at 62.5 g/ha ([3]; 62.5 g ai/ha, evaluated after 13 days, read-out: Foxtail, Giant damage rating (100=total damage to plant; 0=no damage to plant))?
A: Its pest or weed control at 62.5 g/ha is 20%.

Q: What about the pest or weed control at 250 g/ha ([3]; 250 g ai/ha, evaluated after 13 days, read-out: damage to plant, Foxtail, Giant (100=total damage to plant; 0=no damage to plant)) of the same molecule?
A: The pest or weed control at 250 g/ha was 60%.

Q: And the pest or weed control at 15.625 g/ha ([4]; 15.625 g ai/ha, evaluated after 13 days (100=total damage to plant; 0=no damage to plant), read-out: Velvetleaf damage rating)?
A: The pest or weed control at 15.625 g/ha was 0%.

Q: And the pest or weed control at 62.5 g/ha ([4]; 62.5 g ai/ha, evaluated after 13 days, read-out: Velvetleaf damage rating (100=total damage to plant; 0=no damage to plant))?
A: Its pest or weed control at 62.5 g/ha is 0%.

Q: And the pest or weed control at 250 g/ha ([4]; 250 g ai/ha, evaluated after 13 days, read-out: damage to plant, Velvetleaf (100=total damage to plant; 0=no damage to plant))?
A: The pest or weed control at 250 g/ha was 0%.

Q: What about the plant injury at 15.625 g/ha ([5]; 15.625 g ai/ha, evaluated after 13 days (100=total damage to plant; 0=no damage to plant), read-out: Corn damage rating) of the same molecule?
A: Its plant injury at 15.625 g/ha is 10%.

Q: And the plant injury at 62.5 g/ha ([5]; 62.5 g ai/ha, evaluated after 13 days, read-out: Corn damage rating (100=total damage to plant; 0=no damage to plant))?
A: Its plant injury at 62.5 g/ha is 10%.

Q: And the plant injury at 250 g/ha ([5]; 250 g ai/ha, evaluated after 13 days, read-out: damage to plant, Corn (100=total damage to plant; 0=no damage to plant))?
A: The plant injury at 250 g/ha was 10%.

Q: And the pest or weed control at 15.625 g/ha ([6]; 15.625 g ai/ha, evaluated after 13 days (100=total damage to plant; 0=no damage to plant), read-out: Pigweed, Redroot damage rating)?
A: Its pest or weed control at 15.625 g/ha is 0%.

Q: What about the pest or weed control at 62.5 g/ha ([6]; 62.5 g ai/ha, evaluated after 13 days, read-out: Pigweed, Redroot damage rating (100=total damage to plant; 0=no damage to plant)) of the same molecule?
A: The pest or weed control at 62.5 g/ha was 0%.

Q: And the pest or weed control at 250 g/ha ([6]; 250 g ai/ha, evaluated after 13 days, read-out: damage to plant, Pigweed, Redroot (100=total damage to plant; 0=no damage to plant))?
A: The pest or weed control at 250 g/ha was 40%.

Q: And the pest or weed control at 15.625 g/ha ([7]; 15.625 g ai/ha, read-out: Barnyard grass damage rating (100=total damage to plant; 0=no damage to plant))?
A: The pest or weed control at 15.625 g/ha was 0%.

Q: What about the pest or weed control at 62.5 g/ha ([7]; 62.5 g ai/ha, 100=total damage to plant, 0=no damage to plant, read-out: plant damage rating, Barnyardgrass) of the same molecule?
A: The pest or weed control at 62.5 g/ha was 0%.

Q: And the pest or weed control at 250 g/ha ([7]; 250 g ai/ha, read-out: Barnyardgrass damage rating (100=total damage to plant; 0=no damage to plant))?
A: The pest or weed control at 250 g/ha was 40%.

Q: And the pest or weed control at 15.625 g/ha ([8]; 15.625 g ai/ha, read-out: Morning-glory, Ivy-leaved damage rating (100=total damage to plant; 0=no damage to plant))?
A: The pest or weed control at 15.625 g/ha was 0%.

Q: And the pest or weed control at 62.5 g/ha ([8]; 62.5 g ai/ha, 100=total damage to plant, 0=no damage to plant, read-out: plant damage rating, Morningglory, Ivy-leaved)?
A: Its pest or weed control at 62.5 g/ha is 0%.

Q: And the pest or weed control at 250 g/ha ([8]; 250 g ai/ha, read-out: Morningglory, Ivy-leaved damage rating (100=total damage to plant; 0=no damage to plant))?
A: Its pest or weed control at 250 g/ha is 0%.

Q: What about the pest or weed control at 15.625 g/ha ([9]; 15.625 g ai/ha, read-out: Foxtail, Giant damage rating (100=total damage to plant; 0=no damage to plant)) of the same molecule?
A: Its pest or weed control at 15.625 g/ha is 0%.

Q: And the pest or weed control at 62.5 g/ha ([9]; 62.5 g ai/ha, 100=total damage to plant, 0=no damage to plant, read-out: plant damage rating, Foxtail, Giant)?
A: The pest or weed control at 62.5 g/ha was 0%.

Q: What about the pest or weed control at 250 g/ha ([9]; 250 g ai/ha, read-out: Foxtail, Giant damage rating (100=total damage to plant; 0=no damage to plant)) of the same molecule?
A: The pest or weed control at 250 g/ha was 50%.

Q: What about the pest or weed control at 15.625 g/ha ([10]; 15.625 g ai/ha, read-out: Velvetleaf damage rating (100=total damage to plant; 0=no damage to plant)) of the same molecule?
A: Its pest or weed control at 15.625 g/ha is 0%.

Q: What about the pest or weed control at 62.5 g/ha ([10]; 62.5 g ai/ha, 100=total damage to plant, 0=no damage to plant, read-out: plant damage rating, Velvetleaf) of the same molecule?
A: Its pest or weed control at 62.5 g/ha is 0%.

Q: What about the pest or weed control at 250 g/ha ([10]; 250 g ai/ha, read-out: Velvetleaf damage rating (100=total damage to plant; 0=no damage to plant)) of the same molecule?
A: Its pest or weed control at 250 g/ha is 0%.

Q: And the plant injury at 15.625 g/ha ([11]; 15.625 g ai/ha, read-out: Corn damage rating (100=total damage to plant; 0=no damage to plant))?
A: Its plant injury at 15.625 g/ha is 0%.

Q: And the plant injury at 62.5 g/ha ([11]; 62.5 g ai/ha, 100=total damage to plant, 0=no damage to plant, read-out: plant damage rating, Corn)?
A: Its plant injury at 62.5 g/ha is 0%.

Q: And the plant injury at 250 g/ha ([11]; 250 g ai/ha, read-out: Corn damage rating (100=total damage to plant; 0=no damage to plant))?
A: Its plant injury at 250 g/ha is 0%.

Q: And the pest or weed control at 15.625 g/ha ([12]; 15.625 g ai/ha, read-out: Pigweed, Redroot damage rating (100=total damage to plant; 0=no damage to plant))?
A: The pest or weed control at 15.625 g/ha was 0%.

Q: And the pest or weed control at 62.5 g/ha ([12]; 62.5 g ai/ha, 100=total damage to plant, 0=no damage to plant, read-out: plant damage rating, Pigweed, Redroot)?
A: Its pest or weed control at 62.5 g/ha is 0%.

Q: And the pest or weed control at 250 g/ha ([12]; 250 g ai/ha, read-out: Pigweed, Redroot damage rating (100=total damage to plant; 0=no damage to plant))?
A: Its pest or weed control at 250 g/ha is 0%.
